Read-outs that look alike come from different tables or passages of the source. Bridge positions count the residues as written; N and C are the ends. Square brackets hold non-standard residues; d marks the D form. Peptide text beside a SMILES is read from it. Trp(7-Me) = Cc1cccc2c(C[C@H](N)C(=O)O)c[nH]c12; 2Nal = N[C@@H](Cc1ccc2ccccc2c1)C(=O)O; AEF = NCCOc1ccc(C[C@H](N)C(=O)O)cc1; Cit = NC(=O)NCCC[C@H](N)C(=O)O; Pen = CC(C)(S)[C@H](N)C(=O)O; αMeK = C[C@](N)(CCCCN)C(=O)O; Aib = CC(C)(N)C(=O)O; βAla = NCCC(=O)O
How the values were obtained:
in vitro [1] = conditions: both, SD, rat, plasma (EDTA)
in vitro [2] = conditions: cynomolgus monkey, 20% fecal homogenate (supernatant), anaerobic, pH 6.8
IL-23R = target: T1, IL-23R (Homo sapiens, UniProt Q5VWK5); test: DB cells IL23R pSTAT3 cell assay (pStat3 HTRF); type: cell-based
T1 sequence (Q5VWK5 24-629): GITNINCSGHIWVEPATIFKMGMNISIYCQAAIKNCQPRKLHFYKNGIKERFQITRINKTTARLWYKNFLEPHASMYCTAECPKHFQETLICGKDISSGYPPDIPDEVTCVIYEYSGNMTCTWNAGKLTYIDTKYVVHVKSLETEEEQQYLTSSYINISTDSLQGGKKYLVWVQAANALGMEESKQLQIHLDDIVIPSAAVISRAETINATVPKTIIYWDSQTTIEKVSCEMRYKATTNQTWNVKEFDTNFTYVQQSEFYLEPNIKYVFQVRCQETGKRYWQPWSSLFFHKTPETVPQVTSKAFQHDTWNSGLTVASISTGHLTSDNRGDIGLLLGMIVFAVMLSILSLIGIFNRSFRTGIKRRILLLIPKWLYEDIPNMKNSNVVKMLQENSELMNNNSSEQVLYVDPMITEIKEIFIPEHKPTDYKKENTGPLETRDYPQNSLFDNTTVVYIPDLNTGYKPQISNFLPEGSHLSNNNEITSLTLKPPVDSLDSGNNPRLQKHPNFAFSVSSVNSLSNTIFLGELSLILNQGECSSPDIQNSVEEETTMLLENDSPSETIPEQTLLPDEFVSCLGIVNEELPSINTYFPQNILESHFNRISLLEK
How it was run: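 DB cells (5×10E5/well, RPMI-1640 + 10% FBS) stimulated with 0.5 nM final IL-23 plus serially diluted test peptides for 30 min at 37 °C, 5% CO2. Phospho-STAT3 (Tyr705) in lysates measured by HTRF using a two-plate protocol.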

in vitro [3] = conditions: human, 20% fecal homogenate (supernatant), anaerobic, pH 6.8
[4] = Table E3, DB cells, IL-23 0.5 nM, 30 minutes at 37° C., read-out: pStat3 HTRF (IC50)

Row | Structure (SMILES) | half-life at 20 μM (in vitro [1]) | half-life at 20 μM (in vitro [2]) | IC50 (IL-23R; [4]) | half-life at 20 μM (in vitro [3]) | IC50 (IL-23R)
1 | CC(=O)NCCCC[C@H](NC(=O)[C@](C)(CC(C)C)NC(=O)[C@H](Cc1ccc2ccccc2c1)NC(=O)[C@H](Cc1ccc(OCCN)cc1)NC(=O)[C@H]1NC(=O)[C@H](CCC(N)=O)NC(=O)[C@H](Cc2c[nH]c3c(C)cccc23)NC(=O)[C@H]([C@@H](C)O)NC(=O)[C@H](CC(N)=O)NC(=O)[C@@H](NC(C)=O)C(C)(C)SSC1(C)C)C(=O)N[C@H](Cc1ccccc1)C(=O)NCCC(N)=O [compound 213] | < 0.3 h | > 24 h | 10 to 100 nM | > 24 h | 
2 | CC(=O)NCCCC[C@H](NC(=O)[C@](C)(CCCCN)NC(=O)[C@H](Cc1ccc2ccccc2c1)NC(=O)[C@H](Cc1ccc(OCCN)cc1)NC(=O)[C@H]1NC(=O)[C@H](CCC(N)=O)NC(=O)[C@H](Cc2c(C(C)(C)C)[nH]c3c(C(C)(C)C)cc(C(C)(C)C)cc23)NC(=O)[C@H]([C@@H](C)O)NC(=O)[C@H](CC(N)=O)NC(=O)[C@@H](NC(C)=O)C(C)(C)SSC1(C)C)C(=O)N[C@@H](CC(N)=O)C(=O)NCCC(N)=O [compound 233] | > 24 h | > 24 h | > 100 nM | > 24 h | 
3 | CC(=O)NCCCC[C@@H]1NC(=O)[C@H](Cc2c[nH]c3c(C)cccc23)NC(=O)[C@H]([C@@H](C)O)NC(=O)[C@H](CC(N)=O)NC(=O)[C@@H](NC(C)=O)C(C)(C)SSC(C)(C)[C@@H](C(=O)N[C@@H](Cc2ccc(OCCN)cc2)C(=O)N[C@@H](Cc2ccc3ccccc3c2)C(=O)N[C@@](C)(CCCCN)C(=O)N[C@@H](CCCCNC(C)=O)C(=O)N[C@@H](CC(N)=O)C(=O)N[C@H](CC(N)=O)Cc2ccccc2)NC1=O [compound 247] | > 24 h | > 24 h |  | > 24 h | 1 to 10 nM
4 | CC(=O)NCCCC[C@H](NC(=O)[C@](C)(CCCCN)NC(=O)[C@H](Cc1ccc2ccccc2c1)NC(=O)[C@H](Cc1ccc(OCCN)cc1)NC(=O)[C@H]1NC(=O)C(C)(C)NC(=O)[C@H](Cc2c[nH]c3c(C)cccc23)NC(=O)[C@H]([C@@H](C)O)NC(=O)[C@H](CC(N)=O)NC(=O)[C@@H](NC(C)=O)C(C)(C)SSC1(C)C)C(=O)N[C@@H](CC(N)=O)C(=O)NCCC(N)=O [compound 241] (Ac-[Pen]NT[Trp(7-Me)][Aib][Pen][AEF][2Nal][αMeK]K(Ac)N[βAla]-NH2; disulfide 1-6) | > 24 h | 15 h | 10 to 100 nM | > 24 h | 
5 | CC(=O)NCCCC[C@@H]1NC(=O)[C@H](Cc2c[nH]c3c(C)cccc23)NC(=O)[C@H]([C@@H](C)O)NC(=O)[C@H](CC(N)=O)NC(=O)[C@@H](NC(C)=O)C(C)(C)SSC(C)(C)[C@@H](C(=O)N[C@@H](Cc2ccc(OCCN)cc2)C(=O)N[C@@H](Cc2ccc3ccccc3c2)C(=O)N[C@@](C)(CCCCN)C(=O)N[C@@H](CCCCNC(C)=O)C(=O)N[C@@H](CC(N)=O)C(=O)N(C)[C@@H](CCCNC(=N)N)C(N)=O)NC1=O [compound 246] | > 24 h | > 24 h | 1 to 10 nM | > 24 h | 
6 | CC(=O)NCCCC[C@H](NC(=O)[C@](C)(CCCCN)NC(=O)[C@H](Cc1ccc2ccccc2c1)NC(=O)[C@H](Cc1ccc(OCCN)cc1)NC(=O)[C@H]1NC(=O)[C@H](CCC(N)=O)NC(=O)[C@H](Cc2c[nH]c3cc(Cl)ccc23)NC(=O)[C@H]([C@@H](C)O)NC(=O)[C@H](CC(N)=O)NC(=O)[C@@H](NC(C)=O)C(C)(C)SSC1(C)C)C(=O)N[C@@H](CC(N)=O)C(=O)NCCC(N)=O [compound 228] | > 24 h | 13 h | 10 to 100 nM | > 24 h | 
7 | CC(=O)NCCCC[C@H](NC(=O)[C@](C)(CC(C)C)NC(=O)[C@H](Cc1ccc2ccccc2c1)NC(=O)[C@H](Cc1ccc(OCCN)cc1)NC(=O)[C@H]1NC(=O)[C@H](CCC(N)=O)NC(=O)[C@H](Cc2c[nH]c3c(C)cccc23)NC(=O)[C@H]([C@@H](C)O)NC(=O)[C@H](CC(N)=O)NC(=O)[C@@H](NC(C)=O)C(C)(C)SSC1(C)C)C(=O)N[C@H](CC(C)C)C(=O)NCCC(N)=O [compound 210] | < 0.3 h | > 24 h | 10 to 100 nM | > 24 h | 
8 | CC(=O)N[C@@H]1C(=O)N[C@@H](CC(N)=O)C(=O)N[C@@H]([C@@H](C)O)C(=O)N[C@@H](Cc2c[nH]c3c(C)cccc23)C(=O)N[C@@H](CCC(N)=O)C(=O)N[C@H](C(=O)N[C@@H](Cc2ccc(OCCN)cc2)C(=O)N[C@@H](Cc2ccc3ccccc3c2)C(=O)N[C@@](C)(CC(C)C)C(=O)NCC(=O)N2CCC[C@H]2C(=O)NCCC(N)=O)C(C)(C)SSC1(C)C [compound 219] | 3 h | 24 h | 10 to 100 nM | 16 h | 
9 | CC(=O)NCCCC[C@@H]1NC(=O)[C@H](Cc2c[nH]c3c(C)cccc23)NC(=O)[C@H]([C@@H](C)O)NC(=O)[C@H](CC(N)=O)NC(=O)[C@@H](NC(C)=O)C(C)(C)SSC(C)(C)[C@@H](C(=O)N[C@@H](Cc2ccc(OCCN)cc2)C(=O)N[C@@H](Cc2ccc3ccccc3c2)C(=O)N[C@@](C)(CCCCN)C(=O)N[C@@H](CCCCNC(C)=O)C(=O)NCCC(=O)NCCC(N)=O)NC1=O [compound 270] | > 24 h | > 24 h | 1 to 10 nM | > 24 h | 
10 | CC(=O)NCCCC[C@H](NC(=O)[C@](C)(CCCCN)NC(=O)[C@H](Cc1ccc2ccccc2c1)NC(=O)[C@H](Cc1ccc(OCCN)cc1)NC(=O)[C@H]1NC(=O)[C@H](CCCNC(N)=O)NC(=O)[C@H](Cc2c[nH]c3c(C)cccc23)NC(=O)[C@H]([C@@H](C)O)NC(=O)[C@H](CC(N)=O)NC(=O)[C@@H](NC(C)=O)C(C)(C)SSC1(C)C)C(=O)N[C@@H](CC(N)=O)C(=O)N[C@H](C(N)=O)[C@@H](C)O [compound 262] (Ac-[Pen]NT[Trp(7-Me)][Cit][Pen][AEF][2Nal][αMeK]K(Ac)NT-NH2; disulfide 1-6) | > 24 h | 3 h | 1 to 10 nM | 15 h | 
11 | CC(=O)NCCCC[C@H](NC(=O)[C@](C)(CCCCN)NC(=O)[C@H](Cc1ccc2ccccc2c1)NC(=O)[C@H](Cc1ccc(OCCN)cc1)NC(=O)[C@H]1NC(=O)[C@H](CCC(N)=O)NC(=O)[C@H](Cc2c[nH]c3c(C)cccc23)NC(=O)[C@H]([C@@H](C)O)NC(=O)[C@H](CC(N)=O)NC(=O)[C@@H](NC(C)=O)C(C)(C)SSC1(C)C)C(=O)N[C@@H](CC(C)C)C(=O)NCCC(N)=O [compound 269] | > 24 h | > 24 h | 1 to 10 nM | > 24 h | 
12 | CC(=O)NCCCC[C@@H]1NC(=O)[C@H](Cc2c[nH]c3c(C)cccc23)NC(=O)[C@H]([C@@H](C)O)NC(=O)[C@H](CC(N)=O)NC(=O)[C@@H](NC(C)=O)C(C)(C)SSC(C)(C)[C@@H](C(=O)N[C@@H](Cc2ccc(OCCN)cc2)C(=O)N[C@@H](Cc2ccc3ccccc3c2)C(=O)N[C@@](C)(CCCCN)C(=O)N[C@@H](CCCCNC(C)=O)C(=O)N[C@@H](CC(N)=O)C(=O)N[C@H](CC(C)C)C(N)=O)NC1=O [compound 245] | > 24 h | > 24 h | < 1 nM | > 24 h | 
13 | CC(=O)NCCCC[C@H](NC(=O)C1(NC(=O)[C@H](Cc2ccc3ccccc3c2)NC(=O)[C@H](Cc2ccc(OCCN)cc2)NC(=O)[C@H]2NC(=O)[C@H](CCC(N)=O)NC(=O)[C@H](Cc3c[nH]c4c(C)cccc34)NC(=O)[C@H]([C@@H](C)O)NC(=O)[C@H](CC(N)=O)NC(=O)[C@@H](NC(C)=O)C(C)(C)SSC2(C)C)CCC1)C(=O)N[C@@H](CC(N)=O)C(=O)NCCC(N)=O [compound 277] | 6 h | 5 h | < 1 nM |  | 
14 | CC(=O)NCCCC[C@H](NC(=O)[C@](C)(CC(C)C)NC(=O)[C@H](Cc1ccc2ccccc2c1)NC(=O)[C@H](Cc1ccc(OCCN)cc1)NC(=O)[C@H]1NC(=O)[C@H](CCC(N)=O)NC(=O)[C@H](Cc2c[nH]c3c(C)cccc23)NC(=O)[C@H]([C@@H](C)O)NC(=O)[C@H](CC(N)=O)NC(=O)[C@@H](NC(C)=O)C(C)(C)SSC1(C)C)C(=O)N[C@H](CO)C(=O)NCCC(N)=O [compound 222] |  | > 24 h | 1 to 10 nM | > 24 h | 
15 | CC(=O)NCCCC[C@H](NC(=O)[C@](C)(CCCCN)NC(=O)[C@H](Cc1ccc2ccccc2c1)NC(=O)[C@H](Cc1ccc(OCCN)cc1)NC(=O)[C@H]1NC(=O)[C@H](CCC(N)=O)NC(=O)[C@H](Cc2c[nH]c3cccc(C)c23)NC(=O)[C@H]([C@@H](C)O)NC(=O)[C@H](CC(N)=O)NC(=O)[C@@H](NC(C)=O)C(C)(C)SSC1(C)C)C(=O)N[C@@H](CC(N)=O)C(=O)NCCC(N)=O [compound 231] |  | 15 h | 1 to 10 nM | > 24 h | 

Reference: patent US20260116921A1, “PEPTIDE INHIBITORS OF INTERLEUKIN-23 RECEPTOR AND THEIR USE TO TREAT INFLAMMATORY DISEASES” (priority 2018, published 2026)
